PMC12299981, “Human Metabolism of Sirolimus Revisited” (Metabolites, 2025)

Assays:
[1] = tested on: pooled human liver microsomes (HLM); assay: Formation kinetics of SRL metabolites by pooled human liver microsomes; type: in vitro ADME; conditions: for Vmax: apparent Vmax of formation of the metabolite from sirolimus; for Vmax / Km: Michaelis–Menten fit; for Km: apparent Km of formation of the metabolite from sirolimus; for CLint: apparent intrinsic clearance of formation of the metabolite, CLint = Vmax/Km
Protocol: (§1) Apparent enzyme kinetic parameters for the major SRL metabolites were assessed. […] Before the addition of the SRL, the NADPH-generating system was preincubated at 37 °C (type C24 incubator shaker, New Brunswick Scientific, Edison, NJ, USA) for 5 min. […] The final volume of the reaction solution was 500 μL, and the reaction was quenched by the addition of a 1:1 volume of ice-cold acetonitrile. Following protein precipitation, samples were briefly vortexed and subsequently centrifuged at 4 °C and 13,000× g for 10 min. The supernatant was transferred to a 2-mL HPLC glass vial and analyzed using high-performance liquid chromatography/tandem mass spectrometry (LC-MS/MS). Representative control incubations without HLMs, without drug, or without the NADPH-generating system (all in quadruplicate) were carried out under the same conditions with every SRL HLM metabolism batch.
(§2) For data analysis, we utilized Sciex Analyst Software (version TF1.7.1) to process and interpret mass spectrometry data. […] Kinetics data was fitted using the GraphPad Prism Enzyme Kinetics Module (Version 10.0.2, for Windows, GraphPad Software, Boston, MA, USA).
(§3) The formation rates of hydroxy SRL and desmethyl SRL were analyzed and fitted using Michaelis–Menten kinetics. This approach enables the determination of kinetic parameters such as Vmax (maximum reaction velocity) and Km (substrate concentration at half-maximal velocity), which provide insight into the enzymatic activity and substrate affinity for these metabolites. […] To compare the formation of the various metabolites and to predict the human hepatic clearance, the apparent intrinsic clearances of the formation of the metabolites (CLint = Vmax/Km) were calculated.

[2] = tested on: phytohemagglutinin-stimulated human lymphocyte proliferation; design: method as in PMID 1352208; conditions: percent of the immunosuppressive activity of SRL; cited from earlier work
[3] = design: method as in doi:10.1016/S0955-470X(10)80014-X, PMID 11165091; conditions: stability is increased in a mildly acidic environment; cited from earlier work
[4] = Formation kinetics of SRL metabolites by pooled human liver microsomes; type: in vitro ADME; conditions: human, pooled human liver microsomes, pH 7.4; sum over metabolite formation, pooled HLM, CLint = Vmax/Km; read-out: total Clint derived from the formation of hydroxylated and demethylated SRL metabolites
Protocol: as §1, §2, §3

Row | Km ([1]; n = 4) [µM] | CLint [1] [µL/mg protein/min] | Molecule | Vmax ([1]; n = 4) [pmol/mg protein/min] | further results
1 |  |  | 11-Hydroxy sirolimus [11-Hydroxy SRL] | 6.203 | Vmax ([1]; n = 4, listed as 11-hydroxy SRL): 6.2 pmol/mg protein/min
2 |  |  | 27-O-Desmethyl sirolimus [27-O-desmethyl SRL] | 0.552 | 
3 | 7.21 | 0.6 | CO[C@H]1C[C@@H]2CC(O)[C@@H](C)[C@@](O)(O2)C(=O)C(=O)N2CCCC[C@H]2C(=O)O[C@H]([C@H](C)C[C@@H]2CC[C@@H](O)[C@H](OC)C2)CC(=O)[C@H](C)/C=C(\C)[C@@H](O)[C@@H](OC)C(=O)[C@H](C)C[C@H](C)/C=C/C=C/C=C/1C (stereo partly drawn) [12-Hydroxy SRL, 12-Hydroxy sirolimus] | 4.264 | Vmax ([1]; n = 4, listed as 12-hydroxy SRL): 4.3 pmol/mg protein/min
4 | 24.4 | 0.08 | CO[C@@H]1C[C@H](C[C@@H](C)[C@@H]2CC(=O)[C@H](C)/C=C(\C)[C@@H](O)[C@@H](OC)C(=O)[C@H](C)C[C@H](C)/C=C/C=C/C=C(\C)[C@@H](O)C[C@@H]3CC[C@@H](C)[C@@](O)(O3)C(=O)C(=O)N3CCCC[C@H]3C(=O)O2)CC[C@H]1O [16-O-desmethyl SRL, 16-O-Desmethyl sirolimus] | 1.828 | 
5 | 15 | 0.65 | COC1CC2CCC(C)C(O)(O2)C(=O)C(=O)N2CCCCC2C(=O)OC(C(C)CC2CCC(O)C(O)C2)CC(=O)C(C)C=C(C)C(O)C(OC)C(=O)C(C)CC(C)C=CC=CC=C1C (stereo not drawn) [39-O-desmethyl SRL, 39-O-Desmethyl sirolimus] | 9.6 | immunosuppressive activity relative to SRL [2]: 10%; Vmax ([1]; n = 4, listed as 39-O-desmthyl SRL): 9.647 pmol/mg protein/min
6 |  |  | 23/24-Hydroxy sirolimus [23/24-Hydroxy SRL] | 2.221 | 
7 |  |  | CO[C@H]1C[C@@H]2CC[C@@H](C)[C@@](O)(O2)C(=O)C(=O)N2CCCC[C@H]2C(=O)O[C@H]([C@H](C)C[C@@H]2CC[C@@H](O)[C@H](OC)C2)CC(=O)[C@H](C)/C=C(\C)[C@@H](O)[C@@H](OC)C(=O)[C@H](C)C[C@H](C)/C=C/C=C/C=C/1C [SRL, Sirolimus] |  | stability in aqueous solutions [3]: low stability in aqueous solutions; microsomal CLint [4]: 2.35 µL/min/mg
